Some test systems named below: SF-268; OVCAR-8; TK-10; 786-0; UACC-257; MDA-N; NCI-H522; UACC-62; DU-145; SK-OV-3; HL-60; K562; HCC 2998; OVCAR-4; HOP-92; COLO 205; RPMI-8226; Hs-578T; BT-549.
Assay in all cases: NCI tumour cell line growth inhibition, 48 h

SMILES strings stand for the structures.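 Assay format: 96-well plates, 48-hour exposure. The concentration for 50% growth inhibition is given as GI50.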 Activity calls are given as the source filed them. No stated cut-off is given here; in the data, active = GI50 up to about 1.1 µM and inactive = higher. Bounds are passed on as bounds.

With `O=C(O)CCSc1nnc(COc2ccc(Cl)cc2)n1-c1ccccc1`, the GI50 in the experiment on SF-268, with OVCAR-8, in the experiment on TK-10, in the experiment on 786-0, in the experiment on UACC-257 and with MDA-N was > 100 µM (inactive) throughout. For the same molecule, the GI50 in the experiment with NCI-H522, in the experiment on UACC-62, in the experiment on DU-145, with SK-OV-3, in the experiment on HL-60 and in the experiment on K562 was > 100 µM (inactive) throughout. Also, the GI50 in the experiment on HCC 2998, with OVCAR-4, in the experiment with HOP-92 and in the experiment on COLO 205 was > 100 µM (inactive) throughout.

On to `Clc1ccc2[nH]c(CC3CCCC3)nc2c1`, for which the GI50 with SF-268 is 19.3 µM (inactive); with OVCAR-8, 25.6 µM (inactive); in the experiment on TK-10, 28.5 µM (inactive); with 786-0, 16.6 µM (inactive); with UACC-257, 88.1 µM (inactive); with MDA-N it was 10 µM (inactive). Besides, the GI50 is 5.74 µM (inactive) in the experiment with NCI-H522; 15.8 µM (inactive) with UACC-62; 20.9 µM (inactive) in the experiment on DU-145; 22.3 µM (inactive) with SK-OV-3; 3.14 µM (inactive) with K562; 12.1 µM (inactive) in the experiment on RPMI-8226. The GI50 in the experiment with HCC 2998 was 20 µM (inactive); in the experiment on OVCAR-4, 14.9 µM (inactive); with HOP-92, 12.9 µM (inactive); in the experiment on COLO 205, 14.2 µM (inactive).

Turning to `O=[N+]([O-])c1ccc2c(c1)nc1n2C(c2c(F)cccc2F)SC1` (stereo not drawn), the GI50 in the experiment with SF-268 is > 100 µM (inactive); in the experiment with OVCAR-8 it was > 100 µM (inactive); in the experiment on TK-10, > 100 µM (inactive); with 786-0, > 91.6 µM (inactive); in the experiment on UACC-257, > 100 µM (inactive); with MDA-N it was > 100 µM (inactive). Moreover, the GI50 in the experiment on NCI-H522, in the experiment with UACC-62, in the experiment on DU-145, in the experiment on SK-OV-3, in the experiment with HL-60 and in the experiment on K562 was > 100 µM (inactive) throughout. Also, the GI50 was > 100 µM (inactive) with RPMI-8226; > 100 µM (inactive) in the experiment with HCC 2998; > 100 µM (inactive) in the experiment with Hs-578T; > 100 µM (inactive) with OVCAR-4; 62.1 µM (inactive) with HOP-92; > 100 µM (inactive) in the experiment with COLO 205.

For the molecule `COc1ccc(CCNC(=S)NC=C2C(=O)c3ccccc3C2=O)cc1OC`, the GI50 with SF-268, in the experiment on OVCAR-8, with 786-0, with UACC-257, with MDA-N and with NCI-H522 was > 100 µM (inactive) in each case. In addition, the GI50 was > 100 µM (inactive) with UACC-62; > 100 µM (inactive) in the experiment on DU-145; > 100 µM (inactive) in the experiment on SK-OV-3; 93.1 µM (inactive) in the experiment with HL-60; > 100 µM (inactive) with K562; 17.9 µM (inactive) in the experiment with RPMI-8226. Moreover, the GI50 was > 100 µM (inactive) in the experiment with HCC 2998; 14.8 µM (inactive) in the experiment with Hs-578T; > 100 µM (inactive) with OVCAR-4; 0.741 µM (active) in the experiment with HOP-92; > 100 µM (inactive) in the experiment on COLO 205.

As for `CC1=CCC[C@H]2[C@](C)(CC3=CC(=O)C4SCCSC4C3=O)[C@@H](C)CC[C@]12C` (stereo partly drawn), the GI50 is 19.2 µM (inactive) in the experiment on OVCAR-8; 18.5 µM (inactive) with 786-0; 19.3 µM (inactive) in the experiment on UACC-257; 11.4 µM (inactive) with MDA-N; 20.6 µM (inactive) in the experiment on BT-549; 14.8 µM (inactive) in the experiment with UACC-62. The GI50 with DU-145 was 24.5 µM (inactive); in the experiment with K562, 19.9 µM (inactive); in the experiment on RPMI-8226, 14.1 µM (inactive); with HCC 2998, 21.9 µM (inactive); in the experiment on OVCAR-4 it was 24.6 µM (inactive); in the experiment with HOP-92, 31.4 µM (inactive). Moreover, the GI50 in the experiment on COLO 205 is 17.7 µM (inactive).

Consider `CC[C@]1(Cc2ccc(OC)c(OC)c2)[C@@H]2C[C@@H](C(=O)OC)ON2O[C@H](OC2CCCC2(c2ccccc2)c2ccccc2)[C@@H]1OC(C)=O` (stereo partly drawn), for which the GI50 in the experiment on SF-268, with OVCAR-8, in the experiment on TK-10, with 786-0, in the experiment on UACC-257 and in the experiment with BT-549 was > 100 µM (inactive) in each case. Also, the GI50 with UACC-62, in the experiment with DU-145, in the experiment on SK-OV-3, with K562 and with COLO 205 was > 100 µM (inactive) each time.

Regarding `CCCNC1=Nc2ccccc2[C@@H]2N(C)c3ccccc3C(C)C[C@]12C` (stereo partly drawn), the GI50 in the experiment with SF-268 is 21.6 µM (inactive); in the experiment on OVCAR-8 it was 14.7 µM (inactive); with TK-10, 16 µM (inactive); with 786-0 it was 18.5 µM (inactive); with UACC-257, 12.9 µM (inactive); with MDA-N, 20.5 µM (inactive). Moreover, the GI50 in the experiment on NCI-H522 was 18.2 µM (inactive); in the experiment on UACC-62 it was 16.1 µM (inactive); with DU-145 it was 32.4 µM (inactive); in the experiment with HL-60 it was 33.3 µM (inactive); with K562 it was 20 µM (inactive); in the experiment on RPMI-8226, 18.7 µM (inactive). Besides, the GI50 was 11.1 µM (inactive) with HCC 2998, 19.1 µM (inactive) in the experiment on Hs-578T, 5.7 µM (inactive) in the experiment with OVCAR-4 and 17.9 µM (inactive) in the experiment on COLO 205.

Consider `CCn1cc(C(=O)O)c(=O)c2ccc(C)nc21` [NALIDIXIC ACID], for which the GI50 in the experiment on SF-268, in the experiment with OVCAR-8, with TK-10, in the experiment with 786-0, in the experiment on UACC-257 and in the experiment with MDA-N was > 100 µM (inactive) throughout. Also, the GI50 with NCI-H522, in the experiment on DU-145, with HL-60, in the experiment with K562, in the experiment on RPMI-8226 and with HCC 2998 was > 100 µM (inactive) in each case. Also, the GI50 in the experiment on Hs-578T is > 100 µM (inactive); in the experiment on OVCAR-4, > 100 µM (inactive); with HOP-92, 26.9 µM (inactive); in the experiment on COLO 205, > 100 µM (inactive).

`COc1ccc(CC(C)N)cc1` (stereo not drawn) [PARA-METHOXYAMPHETAMINE]: the GI50 in the experiment with SF-268, in the experiment on OVCAR-8, in the experiment on TK-10, in the experiment with 786-0, in the experiment on UACC-257 and in the experiment on NCI-H522 was > 100 µM (inactive) each time. Further, the GI50 with UACC-62, with SK-OV-3, in the experiment on HL-60, in the experiment with K562, in the experiment with RPMI-8226 and in the experiment on HCC 2998 was > 100 µM (inactive) each time. Moreover, the GI50 in the experiment with OVCAR-4, with HOP-92 and in the experiment on COLO 205 was > 100 µM (inactive) throughout.

The values above are taken from ChEMBL document CHEMBL1201862, “PubChem BioAssay data set” (2004).
